From patent publication US11351399B2, “Combined local delivery of therapeutic agents using interventional devices and radiation” (The University of North Carolina At Chapel Hill, priority 2014, dated 2022)
Several values for one entry are separate records, joined by “and”; a condition that tells them apart may be missing. Equal values may be shown once. Read-outs that look alike come from different tables or passages of the source.

Legend:
[1] = biodistribution/PK of device and/or IV cisplatin in orthotopic SUM149 cell xenograft model; format: in vivo, mice
Description: Device delivery of cisplatin was evaluated using an orthotopic SUM149 cell xenograft model of breast cancer. In addition to studying iontophoretic delivery as compared to IV delivery of the cisplatin, concurrent device and IV delivery was added as an arm of the study based upon the low systemic exposure of cisplatin. In the study, a single treatment was administered after adhesion of the device to the skin above the tumor.

[2] = test system: SUM149 cell xenograft orthotopic breast cancer model; format: in vivo, mice; conditions: for median lifespan: control median 49 days; for tumor growth inhibition: weekly, four doses
Description: (§1) Iontophoretic delivery of cisplatin in was tested in both SUM149 cell xenograft and T11 syngeneic orthotopic breast cancer models. For both models, the efficacies of device cisplatin, IV cisplatin, device+IV cisplatin, device saline, and IV saline were compared.
(§2) For the SUM149 xenograft model, once the tumors reached ˜50 mm^3, the mice were treated with device cisplatin, IV cisplatin (5 mg/kg), device+IV cisplatin (5 mg/kg), device saline, or IV saline every week for four total doses, as shown in FIGS. 35A and 35B. […] For the T11 model, mice received two doses of device cisplatin, IV cisplatin (5 mg/kg), device+IV cisplatin (5 mg/kg), device saline, or IV saline every week for two total doses beginning five days after inoculation (˜20 mm^3), as shown in FIGS. 35C and 35D. The number of treatments varied between tumor models because of the differences in tolerability of treatments.

[3] = test system: T11 syngeneic orthotopic breast cancer model; test: tumor treatment efficacy of cisplatin, T11 syngeneic model; format: in vivo, mice; conditions: for median lifespan: control median 10 days; for tumor growth inhibition: two doses
Description: as §1, §2

[4] = test system: T11 syngeneic orthotopic breast cancer models; test: combined cisplatin and radiation efficacy, T11 syngeneic model; format: in vivo, mice; conditions: single dose
Description: Using T11 syngeneic orthotopic breast cancer models, radiotherapy was tested as an alternative and/or additional treatment method to device and IV cisplatin to compare the therapeutic effects of the various treatments. Mice received a single dose of radiation (10 Gy), device cisplatin, device cisplatin+radiation (10 Gy), IV cisplatin (5 mg/kg), IV cisplatin+radiation (10 Gy), device+IV cisplatin (5 mg/kg), and device cisplatin+IV cisplatin (5 mg/kg)+radiation (10 Gy) five days after inoculation (˜20 mm^3).

[5] = ex vivo cisplatin transport into human skin, modified Franz diffusion cell; conditions: 1 mA for 25 minutes, ~1 mm thick skin, ICP-MS
Description: Ex vivo drug transport studies were also conducted by transporting cisplatin into ˜1 mm thick human skin and were evaluated using a modified Franz diffusion cell with the test drug transport device directly above the skin instead of a donor chamber. During the testing, 1 or 0 mA of current was applied for 25 minutes, and the skin and solution were snap frozen, processed, and analyzed by inductively coupled plasma-mass spectrometry (ICP-MS).

[6] = test system: orthotopic PDX model of pancreatic cancer; conditions: for mice with tumor regression: twice a week up to 7 weeks
Description: Iontophoretic devices were surgically implanted into orthotopic PDX tumors when their size reached ˜200 mm^3, as determined by high resolution 3D ultrasound. Mice were treated twice a week for up to 7 weeks with device gemcitabine (20 mg/mL), device saline (0.9% NaCl), IV Gemcitabine (80 mg/kg), or IV saline. Tumor volumes were measured by volume displacement after completion of the scheduled treatment due to the interference of implanted devices with ultrasound imaging.

[7] = in vivo; conditions: mouse
Text: Orthotopic PDX models of pancreatic cancer were used to characterize iontophoretic delivery of gemcitabine with respect to pharmacokinetics (PK).
In the present example, IV delivery of gemcitabine was compared to local iontophoretic delivery of gemcitabine.

[8] = PK study of device versus IV gemcitabine in non-tumor bearing dogs; format: in vivo
Description: Since there was no readily available large animal model for pancreatic cancer, a representative non-tumor bearing large animal model (Dogs) for humans was used. A laparotomy was performed and iontophoretic devices (shown in FIG. 41) were sutured directly onto the pancreas. A constant current of 10 mA was applied for 60 minutes using either 40 or 10 mg/mL gemcitabine (n=5, per group). […] For the IV treatment arm (n=4, per group), clinical protocol was followed for gemcitabine administration, which was an infusion of a 1 g/m^2 dose for thirty minutes, and the animal was euthanized 60 minutes after the start of the infusion. The plasma was sampled at 15 minute increments before, during, and after therapy. After therapy, the tissues were removed, flash-frozen, and analyzed by UV-HPLC.

[9] = ex vivo drug transport in pancreatic cancer PDX tumors; format: in vitro ADME; conditions: 2 mA for 10 minutes, device sutured onto ex vivo PDX tumor, UV-HPLC
Description: Ex vivo drug transport studies were conducted using pancreatic cancer patient-derived xenografts (PDXs). Test drug transport devices were sutured onto the ex vivo PDX tumors and a counter electrode was placed on the contralateral side of the tumor. 2 or 0 mA of current was applied for 10 minutes and the tumors were subsequently snap frozen, processed, and analyzed by UV-high performance liquid chromatography (HPLC).

[10] = device+IV cisplatin (5 mg/kg) + radiation (10 Gy)

Q: With `[NH2][Pt]([NH2])([Cl])[Cl]` [cisplatin] as the compound, how does the “Platinum Plasma Exposure (AUC)” value ([1]; Device + IV (5 mg/kg) Delivery) read?
A: 10650 ng·h/mL

Q: And the “Platinum Plasma Exposure (AUC)” value ([1]; Device Delivery, single treatment)?
A: 1990 ng·h/mL

Q: What about the “Platinum Plasma Exposure (AUC)” value ([1]; IV (5 mg/kg) Delivery) of the same compound?
A: 9910 ng·h/mL

Q: What about the median lifespan ([2]; IV cisplatin (5 mg/kg)) of the same compound?
A: 68 days

Q: And the “tumor γH2AX staining, device cisplatin versus IV cisplatin” value ([2]; device cisplatin, tumors post treatment)?
A: almost equivalent γH2AX staining

Q: What about the tumor growth inhibition ([2]; device cisplatin, similar to IV cisplatin until day 42) of the same compound?
A: significant tumor growth inhibition

Q: What about the median lifespan ([2]; device cisplatin) of the same compound?
A: 60 days

Q: And the tumor growth inhibition ([2]; device+IV cisplatin (5 mg/kg))?
A: significant tumor growth inhibition

Q: What about the median lifespan ([2]; device+IV cisplatin (5 mg/kg)) of the same compound?
A: > 100 days

Q: What about the “tumor γH2AX staining” value ([2]; device+IV cisplatin, tumors post treatment) of the same compound?
A: greater γH2AX staining

Q: What about the “skin of the mice after device treatment” value ([2]; mouse, in vivo) of the same compound?
A: no scarring or deformation

Q: What about the “tolerability by kidney γH2AX staining compared to IV cisplatin and device+IV cisplatin” value ([2]; mouse, in vivo) of the same compound?
A: better tolerated

Q: What about the median lifespan ([3]; IV cisplatin (5 mg/kg)) of the same compound?
A: 22 days

Q: And the tumor growth inhibition ([3]; device cisplatin, similar to IV cisplatin until day 9)?
A: significant tumor growth inhibition

Q: What about the median lifespan ([3]; device cisplatin) of the same compound?
A: 20 days

Q: And the tumor growth inhibition ([3]; device+IV cisplatin (5 mg/kg))?
A: significant tumor growth inhibition

Q: What about the median lifespan ([3]; device+IV cisplatin (5 mg/kg)) of the same compound?
A: 32 days

Q: What about the “survival on addition of radiation” value ([4]; IV cisplatin (5 mg/kg) + radiation (10 Gy)) of the same compound?
A: significantly improved survival

Q: What about the “survival on addition of radiation” value ([4]; device cisplatin + radiation (10 Gy)) of the same compound?
A: significantly improved survival

Q: And the “survival on addition of radiation” value [4, 10]?
A: significantly improved survival

Q: What about the “tumor growth inhibition and survival versus other groups” value [4, 10] of the same compound?
A: outperformed all other treatment groups

Q: What about the “fold increase in platinum transported into the human skin versus passive diffusion (0 mA)” value [5] of the same compound?
A: 11.4 fold

Q: What does the source list for `Nc1ccn([C@@H]2O[C@H](CO)[C@@H](O)C2(F)F)c(=O)n1` [gemcitabine]?
A: mean log2-fold change in tumor volume ([6]; IV gemcitabine (80 mg/kg)): 1.1; mice with tumor regression ([6]; IV gemcitabine (80 mg/kg)): 0/7; Ki-67 staining of tumors post treatment versus IV gemcitabine and saline arms ([6]; device gemcitabine): decrease in Ki-67 staining; mean log2-fold change in tumor volume ([6]; device gemcitabine (20 mg/mL)): −0.8; mice with tumor regression ([6]; device gemcitabine (20 mg/mL), 52-day study): 7 out of 7 and 7/7; tolerability (body weight gain, alanine transaminase, lipase) compared to IV gemcitabine ([6]; mouse, in vivo): better tolerated; gemcitabine in plasma [7]: no detectable gemcitabine; gemcitabine tumor AUC [7]: 348070 ng·h/mL; distance away from the devices at which gemcitabine was detected ([7]; 0 h): 4.7 mm; distance away from the devices at which gemcitabine was detected ([7]; 3 h): 3 mm; distance away from the devices at which gemcitabine was detected ([7]; 6 h): 3 mm; AUC ([7]; iv, 80 mg/kg): 65200 ng·h/mL; gemcitabine tumor AUC ([7]; iv, 80 mg/kg): 30780 ng·h/mL; gemcitabine in plasma ([8]; IV infusion 1 g/m^2 for thirty minutes): detected in the plasma of all dogs; distance of gemcitabine transport away from the electrode ([8]; device, 10 mg/mL): 6.3 mm; fold increase in concentration of gemcitabine in the normal canine pancreas compared to IV administration ([8]; device, 10 mg/mL): 2.0 fold; drug in plasma ([8]; device, 10 mg/mL, 10 mA for 60 minutes): no drug detected; distance of gemcitabine transport away from the electrode ([8]; device, 40 mg/mL): 9.6 mm; fold increase in concentration of gemcitabine in the normal canine pancreas compared to IV administration ([8]; device, 40 mg/mL): 7.1 fold; dogs with detectable levels of gemcitabine in plasma ([8]; device, 40 mg/mL, 10 mA for 60 minutes): 2 out of 5; fold lower plasma gemcitabine levels than the IV treatment ([8]; device, 40 mg/mL, dogs with detectable levels): at least 25 fold; fold increase in drug transport versus passive diffusion control (0 mA) [9]: 9.1 fold
